According to PMC9663578, “A fluorogenic probe for predicting treatment response in non-small cell lung cancer with EGFR-activating mutations” (Nature Communications, 2022):
Several values for one entry are separate records, joined by “and”; a condition that tells them apart may be missing. Equal values may be shown once.

Columns and labels:
EGFR 19del = molecular target: T1, EGFR 19del (Homo sapiens, UniProt P00533, DEL746-750); assay: Fluorescence turn-on response / titration of HX103 with recombinant EGFR;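 as to Fluorescence intensity at 570 nm: 100% is HX103 fluorescence with wild-type EGFR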;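 as to Fluorescence response of HX103 to EGFR 19del: ratio I over I0 of probe intensity with versus without protein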; type: binding; settings: for Fluorescence intensity, DEL19: Fig. 2c; for Fluorescence response of HX103 to EGFR 19del: Supplementary Fig. 2f
T1 construct: purchased Thermo Fisher PV6179
Experimental: (d) Fluorescence spectra change of HX103 (5 µ M) with increasing concentration of EGFR L858R
(e) Fluorescence spectra change of HX103 (5 µ M ) with
increasing concentration of EGFR 19del (0 to 6 µM) in PBS buffer. (f) Titration curve of HX103
(5 µM) with increasing concentration of EGFRs (0 to 6 µM). The apparent binding affinity (Kd)
The fluorescence titration curve was fitted on one -
site specific binding model. I and I0 represent the intensities of HX103 at 570 nm in the presence
and absence of protein. Data represent average val ues ± SD, n = 3 independent experiments per
dissolved in dimethyl sulfoxide (DMSO) to obtain stock solutions (10 mM). The prepared stock
solution was diluted in sodium phosphate buffer (PBS, 1 M, pH=7.4) to obtain the desired final
concentration solution, containing 0.1% (v/v) DMSO as a cosolvent.
and emission fluorescence spectra of the solution before/after addition o f different concentration
Data analysis：The obtained fluorescence intensity at 570 nm (Excitation wavelength was 440
nm) in each sample was normalized by using the fluorescence intensity of HX103 in the presence
of EGFR. Specifically, the fluorescence intensity of HX103 in the presence of EGFR wild-type
was set at 100% to normalized that of the remaining samples.

EGFR T790M = molecular target: T2, EGFR T790M (Homo sapiens, UniProt P00533, T790M); assay: Kinase inhibition assay (fluorescent mobility-shift assay); type: biochemical; parameters: Kinase activity: unit not given here; settings: for Kinase activity: T790M, n=1-3;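 as to all read-outs here: Cell-free assay with recombinant human EGFR T790M enzyme, compound preincubated with the kinase at room temperature before the reaction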
T2 construct: EGFR T790M (amino acids 668–1210, #PR8052A); purchased Thermo Fisher PR8052A

HCC827 cells = assay: MTT cytotoxicity assay; type: cell-based; settings: Homo sapiens, EGFR 19del, 48 h, n=3
H1975 cells = assay: FACS assay in cultured cells; settings: for HX103 dose-dependent signal (Supplementary Fig. 18): 20 µM = 100
Experimental: (§1) Briefly, the cultured cells were seeded on the petri dish and counted using Count star BioMed automated cell counter. Around 10^6 live-cells were collected and were pelleted (2000×g, 3 min), followed by washing with PBS (2x). Cells were then resuspended in PBS buffer containing 0.1% BSA (1 × 10^6 cells/mL). […] The cell suspension was resuspended in PBS and analyzed with a FACSVerse^TM flow cytometer (BD Biosciences, LSRFortessa). About 10,000 events per tube were analyzed and the mean fluorescence intensity was detected and analyzed.
(§2) For the FACS assay with EGFR antibody, around 10^6 live-cells were collected and washed with PBS (2x). The cells were fixed by 400 µL 4% paraformaldehyde for 15 min at room temperature, followed by permeabilization with 0.1% Triton X-100 for 10 min and blocking with 5% BSA for 30 min. […] The cells were then washed with 0.5% BSA/PBS (3x) and resuspended in 400 µL of 0.1% BSA/PBS. […] The resuspended cell suspension was then analyzed on a FACSVerseTM flow cytometer (BD Biosciences, LSRFortessa). Nonspecific fluorescence binding was omitted by Rabbit mAb IgG isotype control (#3900, CST, 1:100) and the corresponding mean fluorescence was subtracted from the signal measured with each primary antibody. About 10,000 events per tube were analyzed and the mean fluorescence intensity was detected and analyzed.
(§3) Subsequently, the treated cells were incubated for 30 min at 37 °C, followed by washing with PBS buffer three times. […] Finally, the co-stained cells were washed with 0.5% BSA/PBS for three times and resuspended in 400 µL of 0.1% BSA/PBS. The obtained cell suspension was ready for analysis. Nonspecific fluorescence binding was omitted by Rabbit mAb IgG isotype control (#3900, CST, 1:100) as described above.
(§4) Nonspecific fluorescence binding was omitted by Rabbit mAb IgG isotype control (#3900, CST, 1:100). […] After incubation for another 30 min at room temperature, the co-stained cells were washed with 0.5% BSA/PBS for three times and resuspended in 400 µL of 0.1% BSA/PBS. The obtained cell suspension was ready for analysis. Nonspecific fluorescence binding was omitted by Rabbit mAb IgG isotype control (#3900, CST, 1:100) as described above.
(§5) The cells were seeded on the petri dish and cultured at the normal condition with 10% FBS, and that was changed to serum-free condition for 24 h when the cells proliferated at ~80% confluence. […] Nonspecific fluorescence binding was omitted by Rabbit mAb IgG isotype control (#3900, CST, 1:100) as described above.

A549 cells = assay: FACS assay in cultured cells; settings: for HX103 dose-dependent signal (Supplementary Fig. 18): 20 µM = 100
Experimental: as §1, §2, §3, §4, §5

Hela cells = assay: FACS assay in cultured cells; settings: for HX103 dose-dependent signal (Supplementary Fig. 18): 20 µM = 100
Experimental: as §1, §2, §3, §4, §5

[1] = HX103 5 µM, 30 min, replicates n=1-3

COc1cc2c(Nc3ccc(F)c(Cl)c3)ncnc2cc1OCCCNc1ccc(S(=O)(=O)N(C)C)c2nonc12 [HX103]
Fluorescence intensity, DEL19 (EGFR 19del; wavelength 666 nm): 6329.64 | Fluorescence intensity, DEL19 (EGFR 19del; wavelength 669 nm): 5943.64 | Fluorescence intensity, DEL19 (EGFR 19del; wavelength 671 nm): 5458.74 | Fluorescence intensity, DEL19 (EGFR 19del; wavelength 673 nm): 4903.02 | Fluorescence intensity, DEL19 (EGFR 19del; wavelength 676 nm): 4330.47 | Fluorescence intensity, DEL19 (EGFR 19del; wavelength 678 nm): 3796.5 | Fluorescence intensity, DEL19 (EGFR 19del; wavelength 681 nm): 3356.07 | Fluorescence intensity, DEL19 (EGFR 19del; wavelength 683 nm): 3030.49 | Fluorescence intensity, DEL19 (EGFR 19del; wavelength 686 nm): 2784.09 | Fluorescence intensity, DEL19 (EGFR 19del; wavelength 688 nm): 2575.72 | Fluorescence intensity, DEL19 (EGFR 19del; wavelength 690 nm): 2364.25 | Fluorescence intensity, DEL19 (EGFR 19del; wavelength 693 nm): 2121.24 | Fluorescence intensity, DEL19 (EGFR 19del; wavelength 695 nm): 1850.71 | Fluorescence intensity, DEL19 (EGFR 19del; wavelength 698 nm): 1561.85 | Fluorescence intensity, DEL19 (EGFR 19del; wavelength 700 nm): 1263.82 | Fluorescence intensity at 570 nm (EGFR 19del; Fig. 2d, HX103 with EGFR 19del, n=1-3): 101.138 and 103.905 and 84.1794 | fluorescence turn-on response (EGFR 19del; HX103 5 µM in PBS buffer (0.1% DMSO), 570 nm): high fluorescence | Kd (EGFR 19del; HX103 5 µM, EGFR 0 to 6 µM in PBS, one-site specific binding model, read-out: apparent binding affinity (Kd)): 1.1 ± 0.2 µM | Fluorescence response of HX103 to EGFR 19del (EGFR 19del; EGFR 0.1 µM, n=1-3): 2.201 and 2.149 and 2.11 | Fluorescence response of HX103 to EGFR 19del (EGFR 19del; EGFR 1 µM, n=1-3): 5.519 and 5.544 and 5.826 | Fluorescence response of HX103 to EGFR 19del (EGFR 19del; EGFR 5 µM, n=1-3): 8.2406 and 9.498 and 10.3034 | Fluorescence response of HX103 to EGFR 19del (EGFR 19del; EGFR 6 µM, n=1-3): 10.0143 and 10.322 and 11.4127 | decrease of inhibition toward T790M compared to 19del (EGFR T790M; IC50 T790M vs 19del): ~ 750 fold | decrease of inhibition toward T790M compared to L858R (EGFR T790M; IC50 T790M vs L858R): ~ 650 fold | Kinase activity (EGFR T790M; Log [HX103 (M)] -4.5): 14.55 and 14.95 and 12.5 | Kinase activity (EGFR T790M; Log [HX103 (M)] -5): 16 and 19.07 and 16.33 | Kinase activity (EGFR T790M; Log [HX103 (M)] -5.5): 24.68 and 25.89 and 23.04 | Kinase activity (EGFR T790M; Log [HX103 (M)] -6): 50.45 and 49.72 and 50.33 | Kinase activity (EGFR T790M; Log [HX103 (M)] -6.5): 74.42 and 70.48 and 67.65 | Kinase activity (EGFR T790M; Log [HX103 (M)] -7): 85.94 and 86.13 and 86.01 | Kinase activity (EGFR T790M; Log [HX103 (M)] -7.5): 96.44 and 90.88 and 91.86 | Kinase activity (EGFR T790M; Log [HX103 (M)] -8): 104.4 and 100.7 and 101.1 | Kinase activity (EGFR T790M; Log [HX103 (M)] -8.5): 97.33 and 103.4 and 97.96 | Kinase activity (EGFR T790M; Log [HX103 (M)] -9): 98.09 and 98.85 and 98.65 | IC50 (EGFR T790M; n = 3): 0.977 µM | IC50 (HCC827 cells): 9.3 µM | EGFR(+) HX103 (+) (%) AVE (H1975 cells; H1975, AVE of n=3): 82.37% | HX103 (+) (%) AVE (H1975 cells; H1975, AVE of n=3): 87.9667% | HX103 dose-dependent signal (Supplementary Fig. 18) (H1975 cells; H1975, HX103 0.04 µM): 2.425 and 4.214 and 3.319 | HX103 dose-dependent signal (Supplementary Fig. 18) (H1975 cells; H1975, HX103 0.37 µM): 11.9338 and 12.3486 and 12.1512 | HX103 dose-dependent signal (Supplementary Fig. 18) (H1975 cells; H1975, HX103 1.1 µM): 36.5652 and 42.2419 and 39.4086 | HX103 dose-dependent signal (Supplementary Fig. 18) (H1975 cells; H1975, HX103 3.3 µM): 51.8347 and 43.4647 and 47.0457 | HX103 dose-dependent signal (Supplementary Fig. 18) (H1975 cells; H1975, HX103 10 µM): 81.1792 and 74.1549 and 77.687 | HX103 dose-dependent signal (Supplementary Fig. 18) (H1975 cells; H1975, HX103 15 µM): 93.412 and 78.0323 and 85.7212 | HX103 dose-dependent signal (Supplementary Fig. 18) (H1975 cells; H1975, HX103 20 µM): 100 | HX103 signal (Supplementary Fig. 7) (H1975 cells; H1975, HX103 alone or with Gefitinib, replicates n=1-3): 118.617 and 81.9826 and 99.4 | EGFR(+) HX103 (+) (%) (H1975 cells; H1975, replicates n=1-3): 74.3% and 85.37% and 87.44% | HX103(+) (%) (H1975 cells; H1975, replicates n=1-3): 98.62% and 87.52% and 77.76% | normalized MFI of HX103 labeling (H1975 cells; [1]): 81.9742% and 118.026% and 100% | EGFR(+) HX103 (+) (%) (H1975 cells; HX103 5 µM, replicates n=1-3): 85.37% and 87.44% and 74.3% | EGFR(+) HX103 (+) (%) AVE (A549 cells; A549, AVE of n=3): 13.21% | HX103 (+) (%) AVE (A549 cells; A549, AVE of n=3): 14.4253% | HX103 dose-dependent signal (Supplementary Fig. 18) (A549 cells; A549, HX103 0.04 µM): 1.227 and 1.64 and 1.474 | HX103 dose-dependent signal (Supplementary Fig. 18) (A549 cells; A549, HX103 0.37 µM): 16.7962 and 13.0237 and 14.9399 | HX103 dose-dependent signal (Supplementary Fig. 18) (A549 cells; A549, HX103 1.1 µM): 32.8472 and 24.022 and 28.4446 | HX103 dose-dependent signal (Supplementary Fig. 18) (A549 cells; A549, HX103 3.3 µM): 43.6352 and 41.2034 and 42.4293 | HX103 dose-dependent signal (Supplementary Fig. 18) (A549 cells; A549, HX103 10 µM): 71.5104 and 62.9379 and 67.2341 | HX103 dose-dependent signal (Supplementary Fig. 18) (A549 cells; A549, HX103 15 µM): 96.2656 and 89.3616 and 85.8336 | HX103 dose-dependent signal (Supplementary Fig. 18) (A549 cells; A549, HX103 20 µM): 100 | HX103 signal (Supplementary Fig. 7) (A549 cells; A549, HX103 alone or with Gefitinib, replicates n=1-3): 102.046 and 98.7743 and 99.18 | EGFR(+) HX103 (+) (%) (A549 cells; A549, replicates n=1-3): 7.43% and 15.21% and 16.99% | HX103(+) (%) (A549 cells; A549, replicates n=1-3): 14.626% and 17.32% and 11.33% | normalized MFI of HX103 labeling (A549 cells; [1]): 51.9313% and 58.1545% and 55.0429% | EGFR(+) HX103 (+) (%) (A549 cells; HX103 5 µM, replicates n=1-3): 15.21% and 16.99% and 7.43% | normalized MFI of HX103 labeling (Hela cells; [1]): 54.5064% and 65.6652% and 60.0858% | EGFR(+) HX103 (+) (%) (Hela cells; HX103 5 µM, replicates n=1-3): 13.055% and 13.1% and 19.51% | EGFR(+) HX103 (+) (%) AVE (Hela cells; Hela, AVE of n=3): 15.2217% | HX103 (+) (%) AVE (Hela cells; Hela, AVE of n=3): 15.7267% | HX103 dose-dependent signal (Supplementary Fig. 18) (Hela cells; Hela, HX103 0.37 µM): 10.7485 and 20.011 and 16.0693 | HX103 dose-dependent signal (Supplementary Fig. 18) (Hela cells; Hela, HX103 1.1 µM): 23.8614 and 34.4348 and 25.4882 | HX103 dose-dependent signal (Supplementary Fig. 18) (Hela cells; Hela, HX103 3.3 µM): 36.4324 and 54.3602 and 56.4764 | HX103 dose-dependent signal (Supplementary Fig. 18) (Hela cells; Hela, HX103 10 µM): 67.5297 and 65.6787 and 69.9637 | HX103 dose-dependent signal (Supplementary Fig. 18) (Hela cells; Hela, HX103 15 µM): 106.382 and 89.2391 and 92.3446 | HX103 dose-dependent signal (Supplementary Fig. 18) (Hela cells; Hela, HX103 20 µM): 100 | HX103 signal (Supplementary Fig. 7) (Hela cells; Hela, HX103 alone or with Gefitinib, replicates n=1-3): 110.043 and 93.8574 and 96.1 | EGFR(+) HX103 (+) (%) (Hela cells; Hela, replicates n=1-3): 19.51% and 13.055% and 13.1% | HX103(+) (%) (Hela cells; Hela, replicates n=1-3): 15.88% and 13.1% and 18.2%
